Assay results: patent US20170050957A1, “4-AMINO-6-(HETEROCYCLIC)PICOLINATES AND 6-AMINO-2-(HETEROCYCLIC)PYRIMIDINE-4-CARBOXYLATES AND THEIR USE AS HERBICIDES” (Dow AgroSciences LLC, priority 2013, published 2017)
Like-named read-outs stand apart in the source and are kept apart here.

How the values were obtained:
[1] = system: Key Grass and Sedge Weeds as well as Grass Crops; experiment: Post-emergent Test II herbicidal activity (Table 16); assay type: in vivo; settings: post-emergence, 336 h, 14 days after application; for pest or weed control at 35 g/ha: 35 g ai/ha; for pest or weed control at 70 g/ha: 70 g ai/ha; for pest or weed control at 140 g/ha: 140 g ai/ha; for pest or weed control at 280 g/ha: 280 g ai/ha
Summary of the method: (§1)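 Visual injury rating (0 = none, 100 = complete kill) taken 14 d after treatment, relative to untreated plants. Compounds in acetone/DMSO with crop oil concentrate and Triton X-155 were track-sprayed at 187 L/ha onto seedlings at the first-second true leaf stage.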

[2] = system: Key Broadleaf Weed and Crop Species; experiment: Post-emergent Test II herbicidal activity (Table 15); assay type: in vivo; settings: post-emergence, 336 h, 14 d; for pest or weed control at 35 g/ha: 35 g ai/ha; for pest or weed control at 70 g/ha: 70 g ai/ha; for pest or weed control at 140 g/ha: 140 g ai/ha; for pest or weed control at 280 g/ha: 280 g ai/ha
Summary of the method: as §1

[3] = Cyperus esculentus, yellow nutsedge (Cyperus esculentus), read-out: Visual Growth Reduction (%) 14 Days After Application CYPES
[4] = Echinochloa crus-galli, barnyardgrass (Echinochloa crus-galli), read-out: Visual Growth Reduction (%) 14 Days After Application ECHCG
[5] = Oryza sativa, rice (Oryza sativa), read-out: Visual Growth Reduction (%) 14 Days After Application ORYSA
[6] = Setaria faberi, giant foxtail (Setaria faberi), read-out: Visual Growth Reduction (%) 14 Days After Application SETFA
[7] = Triticum aestivum, wheat, spring (Triticum aestivum), read-out: Visual Growth Reduction (%) 14 Days After Application TRZAS
[8] = Zea mays, maize, corn (Zea mays), read-out: Visual Growth Reduction (%) 14 Days After Application ZEAMX
[9] = Abutilon theophrasti, velvetleaf (Abutilon theophrasti), read-out: Visual Growth Reduction (%) 14 Days After Application, ABUTH
[10] = Amaranthus retroflexus, redroot pigweed (Amaranthus retroflexus), read-out: Visual Growth Reduction (%) 14 Days After Application, AMARE
[11] = Brassica napus, oilseed rape, canola (Brassica napus), read-out: Visual Growth Reduction (%) 14 Days After Application, BRSNN
[12] = Chenopodium album, lambsquarters (Chenopodium album), read-out: Visual Growth Reduction (%) 14 Days After Application, CHEAL
[13] = Euphorbia heterophylla, wild poinsettia (Euphorbia heterophylla), read-out: Visual Growth Reduction (%) 14 Days After Application, EPHHL
[14] = Helianthus annuus, sunflower (Helianthus annuus), read-out: Visual Growth Reduction (%) 14 Days After Application, HELAN

COC(=O)c1nc(-c2ccc3ccsc3c2)cc(N)c1Cl [Compound 3.15]
60 to 74%: pest or weed control at 35 g/ha [1, 8] | pest or weed control at 70 g/ha [1, 8] | pest or weed control at 140 g/ha [1, 8] | pest or weed control at 35 g/ha [2, 14] | pest or weed control at 70 g/ha [2, 14]
75 to 84%: pest or weed control at 35 g/ha [1, 4] | pest or weed control at 70 g/ha [1, 4] | pest or weed control at 35 g/ha [2, 13] | pest or weed control at 70 g/ha [2, 13]
0 to 29%: pest or weed control at 35 g/ha [1, 3] | pest or weed control at 70 g/ha [1, 3] | pest or weed control at 140 g/ha [1, 3] | pest or weed control at 35 g/ha [1, 5] | pest or weed control at 70 g/ha [1, 5] | pest or weed control at 140 g/ha [1, 5] | pest or weed control at 35 g/ha [1, 6] | pest or weed control at 70 g/ha [1, 6] | pest or weed control at 140 g/ha [1, 6] | pest or weed control at 35 g/ha [1, 7] | pest or weed control at 70 g/ha [1, 7] | pest or weed control at 140 g/ha [1, 7]
85 to 94%: pest or weed control at 35 g/ha [2, 9] | pest or weed control at 35 g/ha [2, 12] | pest or weed control at 70 g/ha [2, 12] | pest or weed control at 140 g/ha [2, 13] | pest or weed control at 140 g/ha [2, 14]
95 to 100%: pest or weed control at 140 g/ha [1, 4] | pest or weed control at 70 g/ha [2, 9] | pest or weed control at 140 g/ha [2, 9] | pest or weed control at 35 g/ha [2, 10] | pest or weed control at 70 g/ha [2, 10] | pest or weed control at 140 g/ha [2, 10] | pest or weed control at 140 g/ha [2, 12]
30 to 44%: pest or weed control at 35 g/ha [2, 11]
45 to 59%: pest or weed control at 70 g/ha [2, 11] | pest or weed control at 140 g/ha [2, 11]

COC(=O)c1nc(-c2cccc3ccsc23)cc(N)c1Cl [Compound 3.27]
0 to 29%: pest or weed control at 35 g/ha [1, 3] | pest or weed control at 70 g/ha [1, 3] | pest or weed control at 140 g/ha [1, 3] | pest or weed control at 280 g/ha [1, 3] | pest or weed control at 35 g/ha [1, 4] | pest or weed control at 70 g/ha [1, 4] | pest or weed control at 140 g/ha [1, 4] | pest or weed control at 280 g/ha [1, 4] | pest or weed control at 35 g/ha [1, 5] | pest or weed control at 70 g/ha [1, 5] | pest or weed control at 140 g/ha [1, 5] | pest or weed control at 280 g/ha [1, 5] | pest or weed control at 35 g/ha [1, 6] | pest or weed control at 70 g/ha [1, 6] | pest or weed control at 140 g/ha [1, 6] | pest or weed control at 280 g/ha [1, 6] | pest or weed control at 35 g/ha [1, 7] | pest or weed control at 70 g/ha [1, 7] | pest or weed control at 140 g/ha [1, 7] | pest or weed control at 280 g/ha [1, 7] | pest or weed control at 35 g/ha [1, 8] | pest or weed control at 70 g/ha [1, 8] | pest or weed control at 140 g/ha [1, 8] | pest or weed control at 280 g/ha [1, 8] | pest or weed control at 35 g/ha [2, 9] | pest or weed control at 70 g/ha [2, 9] | pest or weed control at 35 g/ha [2, 13] | pest or weed control at 70 g/ha [2, 13] | pest or weed control at 140 g/ha [2, 13] | pest or weed control at 280 g/ha [2, 13]
95 to 100%: pest or weed control at 70 g/ha [2, 10] | pest or weed control at 140 g/ha [2, 10] | pest or weed control at 280 g/ha [2, 10] | pest or weed control at 140 g/ha [2, 12] | pest or weed control at 280 g/ha [2, 12]
85 to 94%: pest or weed control at 35 g/ha [2, 10] | pest or weed control at 280 g/ha [2, 11] | pest or weed control at 70 g/ha [2, 12] | pest or weed control at 280 g/ha [2, 14]
45 to 59%: pest or weed control at 140 g/ha [2, 9] | pest or weed control at 35 g/ha [2, 11] | pest or weed control at 35 g/ha [2, 14]
60 to 74%: pest or weed control at 70 g/ha [2, 11] | pest or weed control at 140 g/ha [2, 11] | pest or weed control at 70 g/ha [2, 14]
75 to 84%: pest or weed control at 280 g/ha [2, 9] | pest or weed control at 35 g/ha [2, 12] | pest or weed control at 140 g/ha [2, 14]
